Source: patent US20180296531A1, “STIMULATION OF 11B-HSD2 EXPRESSION TO IMPROVE HORMONAL THERAPY OF STEROID-DEPENDENT DISEASE” (THE CLEVELAND CLINIC FOUNDATION, priority 2015, published 2018)

How the values were obtained:
AMFR = assay: Immunoblot of AMFR; type: cell-based, human; conditions: enzalutamide treatment, LAPC4 cells and patient tissues
Method: For protein analysis, immunoblots were performed as described previously. Li et al., J Clin Endocrinol Metab 98, E1189-1197 (2013). Briefly, total cellular protein was extracted with ice cold RIPA lysis buffer (Sigma-Aldrich) containing protease inhibitors (Roche). 30-50 μg protein was separated by 8% SDS-PAGE gel and then transferred to a nitrocellulose membrane (Millipore). After incubating with the anti-11β-HSD2 antibody (Santa Cruz; 1:3000), anti-11β-HSD1 antibody (Santa Cruz; 1:1000), GR antibody (BD Biosciences; 1:1000), anti-Erlin-2 antibody (Cell Signaling Technology: 1:1000) or anti-AMFR antibody (Proteintech; 1:1000) overnight at 4° C., the appropriate secondary antibody was incubated for 1 hour at room temperature. The chemiluminescent detection system (Thermo Scientific) was used to detect the bands with peroxidase activity. An anti-β-actin antibody (Sigma-Aldrich; 1:5000) was used as a control for sample loading.

[1] = tested on: LAPC4 and VCaP CRPC xenografts; assay: Mouse xenograft studies: tumor growth and progression-free survival; type: in vivo
Method: All mouse studies were performed under a protocol approved by the Institutional Animal Care and Use Committee (IACUC) of the Cleveland Clinic Lerner Research Institute. All NSG male mice (6-8 weeks old) were purchased from the Jackson Laboratory and the number of mice used in this study was based on previously published mouse xenograft studies by our lab that determined effects of steroid pathway inhibition/augmentation on xenograft growth. Mice were surgically orchiectomized and implanted with DHEA pellets to mimic human adrenal DHEA production in patients with CRPC. 1 week later, mice were prepared for cell injections.
For the evaluation of the 11β-HSD2 role in reversing enzalutamide resistance, either 10^7 vector control or 10^7 11β-HSD2 overexpressing LAPC4 or VCaP cells (100 μl in 50% matrigel and 50% growth media) were subcutaneously injected into mice. When tumors reached 100 or 150 mm^3 (length×width×height×0.52), for LAPC4 and VCaP xenografts, respectively, the mice were arbitrarily divided into 2 groups each for vector and 11β-HSD2 overexpressing cells: Enz diet 62.5 mg/kg and or chow alone groups. Tran et al., Science 324, 787-790 (2009). Based on the daily chow consumption, approximately 0.3125 mg Enz was consumed per mouse per day. Enz in chow and chow alone were obtained from Medivation. Tumor volume was measured every other day, and progression-free survival was assessed as time to 3-fold (LAPC4) or 1.5-fold (VCaP) increase in tumor volume (from 100 or 150 mm^3) from the time Enz or chow alone was initiated. The number of mice in the LAPC4 Vector/Ctrl, Vector/Enz, 11β-HSD2/Ctrl and 11β-HSD2/Enz groups were 9, 9, 10, and 11, respectively. The number of mice in the VCaP Vector/Ctrl, Vector/Enz, 11β-HSD2/Ctrl and 11β-HSD2/Enz groups were 6, 6, 5, and 8, respectively. Numbers of mice in each treatment group were determined by those that survived surgical procedures and had reached a tumor volume to initiate treatment.
For evaluation of the role of AMFR in reversing enzalutamide resistance, either 10^7 control or 10^7 AMFR knockdown LAPC4 cells (100 μl in 50% matrigel and 50% growth media) were subcutaneously injected into mice. The remaining procedures were performed as described above. The number of mice in the LAPC4 shCtrl/Enz and shAMFR/Enz groups were 6, and 10, respectively. Protein levels of 11β-HSD2 in the shCtrl and control or shAMFR LAPC4 xenografts were analyzed by immunoblot. Briefly, ˜40-50 mg xenograft tissue was minced into pieces and then added into soft tissue homogenizing CK14 tubes (Betin Technologies) with 150 μl RIPA buffer containing protease inhibitors. Xenograft tissues were homogenized with a homogenizer (Minilys, Betin Technologies) 6 times (40 seconds each time) at the highest speed. Tubes were incubated on the ice for 5-10 minutes between each homogenization to cool lysates. The lysates were then centrifuged for 30 minutes at 15,000×g and the supernatants were used for immunoblot analysis.

[2] = tested on: LAPC4 xenografts grown in orchiectomized mice; assay: Xenograft cortisol metabolism: [3H]-cortisol inactivation in freshly harvested tumors; type: in vivo, mouse; conditions: CRPC xenograft tumors from enzalutamide-treated mice vs orchiectomy alone
Method: Xenograft metabolism. LAPC4 cells (˜10^7) were injected subcutaneously with Matrigel (Corning) into surgically orchiectomized NSG mice that were implanted with DHEA pellets (5 mg/pellet, 90-day sustained-release, Innovative Research of America). Fresh xenografts were harvested and ˜40 mg xenograft tissues were minced, and cultured in IMEM with 10% FBS at 37° C. with a mixture of [^3H]-cortisol and non-radiolabeled cortisol. Aliquots of media were collected at the indicated time points, steroids were extracted and concentrated as described above.

AR-regulated transcripts = assay: qPCR of AR-regulated transcripts; type: cell-based, human; conditions: LAPC4, 24 hours
Method: LAPC4 cells were treated with Enz for 36 days and then seeded into 12 well plates coated with poly-DL-ornithine at 50% confluence. After incubation overnight, the cells were transfected with 11β-HSD2-FLAG plasmid for 48 hours by using the TranslT®-2020 Transfection Reagent (Mirus) according to the protocol provided by the manufacturer, then maintained in phenol-red-free medium with 5% Charcoal:Dextran-stripped FBS for 48 hours before being treated with the indicated drugs. Total RNA was extracted with a GenElute Mammalian Total RNA miniprep kit (Sigma-Aldrich) and 1 μg RNA was reverse-transcribed to cDNA with the iScript cDNA Synthesis Kit (Bio-Rad). An ABI 7500 Real-Time PCR machine (Applied Biosystems) was used to perform the qPCR analysis, using iTaq Fast SYBR Green Supermix with ROX (Bio-Rad) in 96-well plates at a final reaction volume of 10 μl. The qPCR analysis was carried out in triplicate with suitable primers. Each mRNA transcript was quantitated by normalizing the sample values to RPLP0 and to vehicle treated cells (for steroid treated cells). All gene expression studies were repeated in independent experiments.

[3] = LAPC4 xenografts with forced 11β-HSD2 expression, enzalutamide in chow
[4] = enzalutamide-treated LAPC4 xenografts with stable AMFR knockdown

SMILES: CNC(=O)c1ccc(N2C(=S)N(c3ccc(C#N)c(C(F)(F)F)c3)C(=O)C2(C)C)cc1F [enzalutamide]
- AMFR expression (AMFR): did not consistently increase AMFR expression
- xenograft tumor growth ([1]; LAPC4 Vector xenografts, orchiectomized mice with DHEA, enzalutamide in chow): growth of Vector xenografts through enzalutamide therapy
- progression-free survival [1, 3]: prolonged progression-free survival
- xenograft tumor growth [1, 3]: significantly reversed enzalutamide-resistant growth
- sensitivity of xenograft to treatment ([1]; VCaP xenografts with 11β-HSD2 expression): Reinstatement of sensitivity to enzalutamide treatment
- progression-free survival [1, 4]: prolonged progression-free survival
- xenograft tumor growth [1, 4]: suppressed xenograft growth
- inactivation of [3H]-cortisol by conversion to cortisone [2]: impaired capability of inactivating [^3H]-cortisol
- expression of AR-regulated genes (AR-regulated transcripts): suppression of AR-regulated genes
